Laboratory results taken from patent US20260125374A1, “PI3K-ALPHA INHIBITORS AND METHODS OF MAKING AND USING THE SAME” (Relay Therapeutics, Inc., priority 2021, published 2026).
≈ marks a conversion by molar mass, not a printed value.

What was measured:
[1] = Approximate solubility at 25° C. (visual observation); assay type: physicochemical
Experimental: Max. volume of each solvent added was 1 mL. Approximate solubility was determined by visual observation.

[2] = Stability of III-1 & I-1 solid; assay type: physicochemical; conditions: after 55 days; initial 99.2%

N#Cc1c(-c2cc(NC(=O)c3cc(F)cc(C(F)(F)F)c3)c3c(c2)C(=O)N[C@H]3c2cc(F)ccc2Cl)ccc2ncnn12 [Compound I-1, (R)-N-(3-(2-chloro-5-fluorophenyl)-6-(5-cyano-[1,2,4]triazolo[1,5-a]pyridin-6-yl)-1-oxoisoindolin-4-yl)-3-fluoro-5-(trifluoromethyl)benzamide]
Solubility ([1]; 1,4-dioxane, organic solvent or mixture, thermodynamic from solid, 1,4-Dioxane, polymorph screening batch): 29 to 33 mg/mL (≈ 47.6 to 54.2 mM) | Solubility ([1]; 2-MeTHF, organic solvent or mixture, thermodynamic from solid, polymorph screening batch): 5 to 6 mg/mL (≈ 8.21 to 9.85 mM) | Solubility ([1]; acetone, organic solvent or mixture, thermodynamic from solid, polymorph screening batch): 43 to 52 mg/mL (≈ 70.6 to 85.4 mM) | Solubility ([1]; acetone, organic solvent or mixture, thermodynamic from solid, starting material for salt screening): 12 to 17 mg/mL | Solubility ([1]; acetonitrile, organic solvent or mixture, thermodynamic from solid, polymorph screening batch): 10 to 11 mg/mL (≈ 16.4 to 18.1 mM) | Solubility ([1]; acetonitrile, organic solvent or mixture, thermodynamic from solid, starting material for salt screening): 10 to 17 mg/mL | Solubility ([1]; anisole, organic solvent or mixture, thermodynamic from solid, polymorph screening batch): < 5 mg/mL | Solubility ([1]; benzyl alcohol, organic solvent or mixture, thermodynamic from solid, polymorph screening batch): 16 to 18 mg/mL (≈ 26.3 to 29.6 mM) | Solubility ([1]; chloroform, organic solvent or mixture, thermodynamic from solid, polymorph screening batch): < 5 mg/mL | Solubility ([1]; dichloromethane, organic solvent or mixture, thermodynamic from solid, polymorph screening batch): < 5 mg/mL | Solubility ([1]; dichloromethane, organic solvent or mixture, thermodynamic from solid, starting material for salt screening): < 5 mg/mL | Solubility ([1]; ethanol, organic solvent or mixture, thermodynamic from solid, polymorph screening batch): 6 to 7 mg/mL (≈ 9.85 to 11.5 mM) | Solubility ([1]; ethanol, organic solvent or mixture, thermodynamic from solid, starting material for salt screening): < 5 mg/mL | Solubility ([1]; ethyl acetate, organic solvent or mixture, thermodynamic from solid, polymorph screening batch): 6 to 7 mg/mL (≈ 9.85 to 11.5 mM) | Solubility ([1]; heptane, organic solvent or mixture, thermodynamic from solid, polymorph screening batch): < 5 mg/mL | Solubility ([1]; isopropanol, organic solvent or mixture, thermodynamic from solid, polymorph screening batch): < 5 mg/mL | Solubility ([1]; isopropanol, organic solvent or mixture, thermodynamic from solid, starting material for salt screening): < 5 mg/mL | Solubility ([1]; isopropyl acetate, organic solvent or mixture, thermodynamic from solid, polymorph screening batch): < 5 mg/mL | Solubility ([1]; isopropyl acetate, organic solvent or mixture, thermodynamic from solid, starting material for salt screening): < 5 mg/mL | Solubility ([1]; methanol, organic solvent or mixture, thermodynamic from solid, polymorph screening batch): 15 to 17 mg/mL (≈ 24.6 to 27.9 mM) | Solubility ([1]; methanol, organic solvent or mixture, thermodynamic from solid, starting material for salt screening): 12 to 17 mg/mL | Solubility ([1]; methyl ethyl ketone, organic solvent or mixture, thermodynamic from solid, polymorph screening batch): 26 to 28 mg/mL (≈ 42.7 to 46 mM) | Solubility ([1]; methyl ethyl ketone, organic solvent or mixture, thermodynamic from solid, starting material for salt screening): 12 to 17 mg/mL | Solubility ([1]; nitromethane, organic solvent or mixture, thermodynamic from solid, Nitromethane (NM), polymorph screening batch): 7 to 8 mg/mL (≈ 11.5 to 13.1 mM) | Solubility ([1]; t-butyl methyl ether, organic solvent or mixture, thermodynamic from solid, polymorph screening batch): < 5 mg/mL | Solubility ([1]; tetrahydrofuran, organic solvent or mixture, thermodynamic from solid, polymorph screening batch): 52 to 65 mg/mL (≈ 85.4 to 107 mM) | Solubility ([1]; tetrahydrofuran, organic solvent or mixture, thermodynamic from solid, starting material for salt screening): 33 to 64 mg/mL | Solubility ([1]; toluene, organic solvent or mixture, thermodynamic from solid, polymorph screening batch): < 5 mg/mL | Solubility ([1]; trifluoroethanol, organic solvent or mixture, thermodynamic from solid, starting material for salt screening): 12 to 17 mg/mL | Solubility ([1]; water, thermodynamic from solid, polymorph screening batch): < 5 mg/mL | Solubility ([1]; water, thermodynamic from solid, starting material for salt screening): < 5 mg/mL | purity of solid after storage [2]: 99.2%
